# Columns and labels:
# [1] = test system: CUG-RNA foci in DM1 myoblasts; assay: FISH analysis of nuclear CUG-RNA foci in DM1 myoblasts; format: cell-based, human; details: 4 days
# Procedure: DM1 myoblasts were then treated with 10 μM of either RCN-001 or the vehicle (DMSO) for 4 days and then examined by FISH using a Cy3 (CAG)10 probe.
# Normal myoblasts were purchased from Lonza, Inc. DM1 myoblasts were a gift from Dr. Charles Thornton. Normal and DM1 myoblasts were maintained in SkGM Medium (Lonza, Inc.) containing 10% Fetal Bovine Serum and 1% Penicillin-Streptomycin, 5% CO2 at 37° C. Human Embryonic Kidney 293 Cells (293HEK) were maintained in Dulbecco's Modification of Eagle's Medium (DMEM) from Cellgro supplemented with 10% Fetal Bovine Serum and 1% Penicillin-Streptomycin, 5% CO2 at 37° C.
# (§1) CUG-RNA foci were detected by performing FISH on untreated DM1 myoblasts and DM1 myoblasts following treatment. For FISH analysis, DM1 myoblasts were plated on a 24-well clear bottom polystyrene plate with circular glass coverslips followed by treatment. Prior to FISH analysis, cells were fixed using 4% paraformaldehyde in 1×PBS for 20 min at room temperature. FISH analysis was performed using a Cy3 conjugated (CAG)10 oligonucleotide probe (Integrated DNA Technologies, Inc.) as described by Taneja et al, 1995 and Dansithong et al, 2005. CUG-RNA foci were observed as a red signal using fluorescence microscopy. Immunofluorescence was performed as described by Dansithong et al, 2008. Endogenous SHARP was detected using SHARP polyclonal antibodies from Bethyl at a dilution of 1:1000. The secondary antibodies conjugated with FITC (Invitrogen) were used at a 1:2000 dilution. Chloride channel 1 (Clcn1 a.k.a. CIC-1) was detected using CIC-1 polyclonal antibodies from Santa Cruz. The secondary antibodies conjugated with Alexa Flour 488 (Invitrogen) were used at a 1:2000 dilution. FISH analysis in mouse muscle section was carried out as described in Mancodi et al, 2000 (9).
# DM1 myoblasts = assay: Viability of DM1 myoblasts by counting surviving cells; format: cell-based, human; details: Table 1, 10 μM, 4 days, surviving cells vs vehicle control
# [2] = test system: MBNL1 and MBNL2 RNA splicing in DM1 myoblasts; assay: Splicing assay (RT-PCR) for RNAs from DM1 myoblasts; format: cell-based, human
# Procedure: A. Total RNA was isolated from normal (SKMC) myoblasts, untreated DM1 myoblasts and DM1 myoblasts treated with 50 μM RCN-001 or 50 μM Pentamidine for 17 hours and subjected to RT-PCR analysis using the indicated primers sets for MBNL1 and MBNL2 RNAs. GAPDH RNA was amplified in parallel as an internal control. The results of one of three experiments are shown. B. The relative levels of exon inclusion was measured by densitometry and tabulated as mean % exon inclusion +/− standard deviation.
# Treatment of DM1 myoblasts with RCN-001 is also sufficient to rescue abnormal RNA splicing. Two RNAs were selected that show abnormal splicing in DM1 myoblasts: MBNL1 and MBNL2. DM1 myoblast were treated with 50 μM RCN-001 for 17 hours after which RNA was isolated and splice variants were analyzed as previously described (20-22).
# Splicing assays for RNAs isolated from human myoblasts. DM1 patient myoblasts was treated with 50 μM of RCN-001 or Pentamidine for 17 h as described by Warf et al, 2009. Total RNA was isolated using the RNAeasy mini kit (Qiagen Inc., USA) following manufacture's protocol. cDNA was synthesized using 5 μg of total RNA using First-Strand cDNA synthesis kit (GE Healthcare). PCR amplification was carried out using 150 ng of cDNA for 35 cycles for each target RNA. The primers used for PCR amplification are as follows—
# The relative band intensities were measured using densitometry analyses and the percent of exon inclusion was calculated as [exon inclusion/(exon inclusion+exon exclusion)]×100.
# CUG foci in HSALR mice = assay: CUG foci (FISH) in muscle of treated HSALR mice; format: in vivo; details: 40 mg/kg i.p. each day for 7 days
# Procedure: Red: CUG foci, detected with a (CAG)10Cy3 probe Blue: DAPI stain of nuclei.
# (§2) Furthermore, CUG foci, abnormal RNA splicing, myotonia and reduced Clcn1 protein levels are reversed in HSA^LR mice treated with RCN-001: Age and gender matched HSA^LR mice were treated with either vehicle or 40/mgs/kg of RCN-001 injected i.p. each day for 7 days. After treatment CUG foci were examined and RNA isolated from skeletal muscle was subjected to RT-PCR analysis to examine the efficacy of RCN-001 in correcting the splice defects of Clcn1, lbd3 and Serca-1 RNAs, which are abnormally spliced in DM1 (20).
# CUG-RNA foci were detected by performing FISH on untreated DM1 myoblasts and DM1 myoblasts following treatment. For FISH analysis, DM1 myoblasts were plated on a 24-well clear bottom polystyrene plate with circular glass coverslips followed by treatment. Prior to FISH analysis, cells were fixed using 4% paraformaldehyde in 1×PBS for 20 min at room temperature. […] CUG-RNA foci were observed as a red signal using fluorescence microscopy. […] Endogenous SHARP was detected using SHARP polyclonal antibodies from Bethyl at a dilution of 1:1000. […] Chloride channel 1 (Clcn1 a.k.a. CIC-1) was detected using CIC-1 polyclonal antibodies from Santa Cruz. […]
# SHARP = assay: Nuclear SHARP levels in treated HSALR mice; format: in vivo; details: 40 mg/kg i.p. each day for 7 days (not shown)
# Procedure: as §2
# as §1, with “Immunofluorescence was performed as described by Dansithong et al, 2008.” left out, “The secondary antibodies conjugated with FITC (Invitrogen) were used at a 1:2000 dilution.” left out, “The secondary antibodies conjugated with Alexa Flour 488 (Invitrogen) were used at a 1:2000 dilution. FISH analysis in mouse muscle section was carried out as described in Mancodi et al, 2000 (9).” left out
# HSALR mice = assay: Myotonic runs recorded in muscle of treated HSALR mice; format: in vivo; details: gastrocnemius muscle, 40 mg/kg IP once a day for 14 days, p<0.05 vs vehicle
# Source text: (§3) For all animals the recording electrode was inserted into the test muscle 20 times. The number of myotonic runs ≧1 second in the gastrocnemius muscle of individual HSA^LR mice treated with either the saline control or RCN-001 are shown.
# (§4) Importantly, RCN-001 reduces the number of myotonic runs of ≧1 second (p<0.05) (FIG. 5), total time of myotonic runs ≧1 sec (4.04 s±2.9 vehicle; 0.99 s±1.4 RCN-001; p<0.05) and length of the longest run (1.96 s±0.97 vehicle; 0.73 s±0.71 RCN-001; p<0.05) in the gastrocnemius muscle of HSA^LR mice. […] Methods are detailed in the legend of FIG. 5.
# Treatment in HSALR mice. The HSALR transgenic mice expressing (CTG)250 in the 3′UTR of the human skeletal actin mRNA as described in Mankodi et al, 2000 were utilized for this study (a generous gift from Dr. Charles Thornton). Treatment in mice was done by intraperitoneal injection using 40 mg/kg once a day for 7 or 14 days of RCN-001 or vehicle alone. Total RNA was isolated from skeletal muscle of treated HSALR mice using Trizole (Invitrogen, USA) following the manufacture's protocol. cDNA synthesis and PCR was performed as described in Dansithong et al, 2008. PCR amplification was carried out with the following primers—
# Clcn1 = assay: Anti-Clcn1 staining of gastrocnemius muscle sections of HSALR mice; format: in vivo; details: 14 days treatment
# Source text: as §3, §4
# as §1, with “Immunofluorescence was performed as described by Dansithong et al, 2008.” left out, “The secondary antibodies conjugated with FITC (Invitrogen) were used at a 1:2000 dilution.” left out, “The secondary antibodies conjugated with Alexa Flour 488 (Invitrogen) were used at a 1:2000 dilution. FISH analysis in mouse muscle section was carried out as described in Mancodi et al, 2000 (9).” left out
# normal and DM1 myoblasts = assay: Off-target splicing and RNA steady-state levels (semi-quantitative RT-PCR) in myoblasts; format: cell-based, human
# Source text: Semi-quantitative RT-PCR was done as previously described (7,17, 23). Abbreviations: U: Untreated; V: vehicle treated; 16: treated with RCN-001.
# Results for wild-type and HSA^LR mice are not shown.
structure (smiles),measurement,setting,value
CCCCCCc1cc2cc(-c3nnc(-c4cccc(OC)c4)o3)c(=O)oc2cc1O [RCN-001],decrease in cells containing 3 or more foci,"[1]; 10 μM, vs vehicle (DMSO)",~5 fold
same,increase in cells containing no foci,"[1]; 10 μM, vs vehicle (DMSO)",~10 fold
same,# of Foci (percentage) 0-1: Percentage of cells with no or 1 nuclear foci,"[1]; Table 1, 10 μM, FISH",48 percentage
same,# of Foci (percentage) >2: Percentage of cells with 2 or greater nuclear foci,"[1]; Table 1, 10 μM, FISH",52 percentage
same,Toxicity: Viable,DM1 myoblasts,++ (30-40% cell survival)
same,rescue of abnormal splicing of MBNL1 and MBNL2,"[2]; 50 μM, 17 hours, RT-PCR",significantly rescues abnormal splicing of MBNL1 and MBNL2
same,"rescue of aberrant splicing of MBNL1, MBNL2, and IR in DM1 myoblasts","[2]; FIG. 6B, semi-quantitative RT-PCR",rescues aberrant splicing
same,load of the CUG foci,CUG foci in HSALR mice,reduced
same,nuclear SHARP levels,SHARP,allowed nuclear SHARP levels to be re-established
same,number of myotonic runs of ≧1 second,HSALR mice,reduces
same,chloride channel (Clcn1) levels,Clcn1,re-establish normal chloride channel levels
same,off target effects on steady-state levels of endogenous (CUG)6-25 repeat encoding RNAs,normal and DM1 myoblasts; normal and DM1 myoblasts (FIG. 6C),does not show significant off target effects
same,splice patterns of RNAs that are abnormally spliced in DM1,normal and DM1 myoblasts; normal myoblasts (FIG. 6B),does not alter splice patterns
same,splice patterns of RNAs that are normally spliced in DM1,normal and DM1 myoblasts; normal or DM1 myoblasts (FIG. 6A),does not alter splice patterns

# — patent US20140121236A1, “Compositions and Methods for Treating Myotonic Dystrophy Type 1” (UNIVERSITY OF SOUTHERN CALIFORNIA, priority 2012, published 2014)
